Tests used:
[1] = test system: primary human keratinocytes (PHK); assay: Trans Epithelial Electric Resistance (TEER) in PHK monolayers; type: cell-based
Protocol: PHK were plated at a subconfluent density of 2.5−3×10^4 cells/filter in Transwell insert and cultured in Keratinocyte-SFM media until confluent. TEER was measured using an EVOMX voltohmmeter (World Precision Instruments, Sarasota, Fla.). The resistance of cell-free filters was subtracted from each experimental value.
(§1) PHK were plated on glass coverslips at 2-3×10^5 cells/well in a 6-well plate or at 2-3×10^4 cells/filter in Transwell insert (Costar; PET membrane, 0.4 μm pore size, 6.5 mm insert) in Keratinocyte-SFM without antibiotics. The next day after plating, cells were transfected with claudin-1 specific or control (scrambled) siRNAs (Santa Cruz) using Lipofectamine™ 2000 transfection Reagent (Invitrogen). TEER and permeability experiments were conducted 48 hours after PHK were switched to differentiation media.
TEER was measured in PHK as described above. PHK were stimulated with S. aureus-derived peptidoglycan (PGN, 0.2-20 μg/ml, n=3-7) (FIG. 19A), Malp-2 (10-1000 ng/ml, n=3) (FIG. 19B), and Pam3CSK4 a TLR1/2 ligand (0.01-20 μg/ml, n=3-6) (FIG. 19C). Data are presented by analyzing the area under the TEER curve and normalized to the mean values for the control group (media alone)*p<0.05; **p<0.01.

claudin-1 = assay: Western blot of claudin-1 protein in primary human keratinocytes; type: cell-based; settings: 50 ng/ml; for claudin-1 expression over control: 48 hours, differentiating PHK, n=3; for claudin-1 expression by Western blot: PHK differentiated 48 h
Protocol: Human keratinocytes were isolated from neonatal foreskin. Poumay et al., “Basal Detachment of the Epidermis Using Dispase: Tissue Spatial Organization and Fate of Integrin Alpha 6 Beta 4 and Hemidesmosomes,” J. Invest. Dermatol. 102:111-7 (1994), which is hereby incorporated by reference in its entirety. PHK were cultured in Keratinocyte-SFM (Invitrogen/Gibco) with 1% Pen/Strep, 0.2% Amphotericin B (Invitrogen/Gibco). To differentiate PHK, cells were grown in DMEM (Invitrogen/Gibco) with 10% heat-inactivated fetal bovine serum (Invitrogen/Gibco) and 1% Pen/Strep, 0.2% Amphotericin B (Invitrogen/Gibco). For TJ modulation experiments, the following cytokines were added alone or in combination to the differentiation media; human IL-4 (50 ng/ml; R&D system) and IL-13 (50 ng/ml; R&D system).
PHK were lysed on ice in RIPA lysis buffer (20 mM Tris, 50 mM NaCl, 2 mM EDTA, 2 mM EGTA, 1% sodium deoxycholate, 1% TX-100, and 2% SDS, pH 7.4), with 1:100 Protease Inhibitor Cocktail (Sigma), 1:100 Phosphatase Inhibitor Cocktail ([…] for 30 min at 4° C. The samples were heated at 95° C. for 10 min and then centrifuged at 14,000 rpm for 15 min. Forty μg of protein, determined by BCA (Pierce) in NuPage LDS Sample Buffer (Invitrogen) was applied to 4-12% NuPage Bis-Tris gels (Invitrogen). Electrophoresis was performed under reducing conditions with MES SDS Buffer (Invitrogen). Membranes were incubated in blotting solution (5% non-fat dry milk in PBS+0.05% Tween 20) at RT for 1 h and then incubated with primary antibodies; claudin-1 (JAY.8; Zymed), occludin (OC/3F10; Zymed) and GAPDH (FL-355; Santa Cruz). An HRP-linked secondary antibody (GE Healthcare) was used with ECL (GE Healthcare) to visualize bands by autoradiography with Kodak BioMax MR film. The pixel intensity of each band was estimated with Image J.
as §1

occludin and ZO-1 = assay: Expression of occludin and ZO-1 in PHK differentiated with Th2 cytokines; type: cell-based, human; settings: PHK differentiated with cytokine
Protocol: Human keratinocytes were isolated from neonatal foreskin. Poumay et al., “Basal Detachment of the Epidermis Using Dispase: Tissue Spatial Organization and Fate of Integrin Alpha 6 Beta 4 and Hemidesmosomes,” J. Invest. Dermatol. 102:111-7 (1994), which is hereby incorporated by reference in its entirety. PHK were cultured in Keratinocyte-SFM (Invitrogen/Gibco) with 1% Pen/Strep, 0.2% Amphotericin B (Invitrogen/Gibco). To differentiate PHK, cells were grown in DMEM (Invitrogen/Gibco) with 10% heat-inactivated fetal bovine serum (Invitrogen/Gibco) and 1% Pen/Strep, 0.2% Amphotericin B (Invitrogen/Gibco). For TJ modulation experiments, the following cytokines were added alone or in combination to the differentiation media; human IL-4 (50 ng/ml; R&D system) and IL-13 (50 ng/ml; R&D system). […]
Previous studies have shown that claudin-1 expression in noncutaneous epithelial cells can be modulated by cytokines and growth factors. […] To test this possibility, PHK were differentiated in the presence or absence of Th2 cytokines, IL-4 and IL-13, and the expression of claudin-1, occludin and ZO-1 was evaluated. […]

human epidermis sheet = assay: TEER in human epidermal sheets (snap-well system); settings: 1 mM; for TEER, dmem + SC_1 / TEER, dmem + SC_2 / TEER, mean SC: T0 = 1.00
Source text: Epidermal sheets were obtained from discarded human skin using a weck blade (0.08 inch). Epidermal samples were mounted in an adapted snap-well system (Pierro et al., “Zonula Occludens Toxin Structure-Function Analysis, Identification of the Fragment Biologically Active on Tight Junctions and of the Zonulin Receptor Binding Domain,” J. Biol.

[2] = test system: human cultured keratinocytes and reconstructed human epidermis; settings: literature (Kurasawa et al. 2009); cited from earlier work
occludin mRNA = assay: qPCR of occludin mRNA in PHK treated with PPARγ agonist; type: cell-based, human; settings: 5 μM, PHK differentiated in high Calcium media (DMEM) 24 h
Protocol: (§2) PHK were differentiated in high Calcium media (DMEM) in the presence of CIG 5 μM in DMSO or media with equivalent amount of DMSO alone, for 24 h. Total RNA was extracted from PHK using the QlAshredder spin column (Qiagen) and RNeasy RNA isolation kits (Qiagen). The quality of total RNA samples (RNA Integrity Number, RIN) was assessed using an Agilent 2100 Bioanalyzer (Agilent Technologies, Palo Alto, Calif.).
(§3) qPCR was performed using the iScript™ cDNA Synthesis kit and iQ™ SYBER Green Supermix assay system (Bio-Rad Laboratories). All PCR amplifications were carried out in triplicate on an iQ5 Multicolor real-time PCR detection system (Bio-Rad). Primers were designed and synthesized by Integrated DNA Technologies. Relative gene expression was calculated by using the 2^−ΔΔCt method, as previously described. The normalized Ct value of each sample was calculated using GAPDH as an endogenous control gene.

CLDN1 mRNA = assay: qPCR of CLDN1 mRNA in PHK treated with PPARγ agonist; type: cell-based, human; settings: 5 μM, PHK differentiated in high Calcium media (DMEM) 24 h
Protocol: as §2, §3

## IL-13: human IL-13 (R&D system), Th2 cytokine
[1]; 0.5-100 ng/ml, PHK
  TEER, dose response: only a slight increase in TEER
claudin-1
  claudin-1 expression over control: 1.6±0.3 fold
  claudin-1 expression by Western blot: enhanced expression of claudin-1
Occludin and ZO-1
  expression of occludin and ZO-1: no effect

## CCCCCCCCCC(=O)[O-].[Na+] [SC, Sodium Decanoate]
Human epidermis sheet; 4 h
  TEER, dmem + SC_1: 0.79
  TEER, dmem + SC_2: 0.69
  TEER, mean SC: 0.74
Human epidermis sheet; 24 h
  TEER, dmem + SC_1: 0.56
  TEER, dmem + SC_2: 0.51
  TEER, mean SC: 0.54
Human epidermis sheet; after 4 hours of treatment
  TEER over media alone: 0.74 fold
Human epidermis sheet; after 24 hours
  TEER over media alone: 0.54 fold
[2]
  paracellular permeability: increased paracellular permeability
  transepithelial electrical resistance: decreased transepithelial electrical resistance

## Pam3CSK4 [reference compound]
[1]; PGN 0.2-20 μg/ml, Malp-2 10-1000 ng/ml, Pam3CSK4 0.01-20 μg/ml
  tight junction function (area under the TEER curve normalized to media alone): increase tight junction function

## CC1(COc2ccc(CC3SC(=O)NC3=O)cc2)CCCCC1 (stereo not shown) [ciglitazone]
Occludin mRNA
  occludin mRNA expression: 2.0 fold
Occludin mRNA; listed as CIG
  occludin mRNA expression: 2 fold
CLDN1 mRNA
  CLDN1 mRNA expression over DMSO alone: 1.7 fold

B1: IL-4: human IL-4 (R&D system), Th2 cytokine (protein, UniProt P05112 25-153, looked up)
Interleukin-4: HKCDITLQEIIKTLNSLTEQKTLCTELTVTDIFAASKNTTEKETFCRAATVLRQFYSHHEKDTRCLGATAQQFHRHKQLIRFLKRLDRNLWGLAGLNSCPVKEANQSTLENFLERLKTIMREKYSKCSS
[1]; 50 ng/ml, PHK, n=4
  TEER peak: 166±24 Ohms×cm^2
claudin-1
  claudin-1 expression over control: 2.1±0.4 fold
  claudin-1 expression by Western blot: enhanced expression of claudin-1
Occludin and ZO-1
  expression of occludin and ZO-1: no effect
